The values below come from patent US20190022162A1, “COMBINATION ANTICANCER ENDOWED WITH ANTITUMOR ACTIVITY, COMPRISING ALKALOIDS OF CHELIDONIUM MAJUS” (International Society for Drug Development S.R.L., priority 2015, published 2019).

Series [1] can be described thus: Cell counting (Trypan blue, Neubauer chamber), HDF cells. The class given is cell-based, human. The conditions noted are these: human, human dermal fibroblasts (HDF). As to the method:
(§1) For sake of completeness' of information and for the purpose of evaluating the differential cytotoxicity exerted both by the individual components of the combinations and by the combinations themselves on tumour and normal cells, the same treatments tested on U343 cells were also conducted on human dermal fibroblasts (HDF), chosen as a model of cells not concerned by tumour pathologies; this allowed, in the case of treatments tested on U343 cells, evaluations of the differential effects of the tested agents against tumour cells and against a model of normal cells, in accordance with the invention.
(§2) The U343 cells and the HDF cells were cultivated in T25 flasks and treated with the agents after reaching a confluence of 90%. After 48 hours of treatment, the cells were detached with trypsin-EDTA and suspended in medium consisting of 50% DMEM and 50% Trypan blue. The number of viable cells after each treatment was estimated by using the Neubauer counting chamber, excluding cells positive to Trypan blue. At least three countings were made for each treatment.
(§3) The percentage of viable cells compared to the control was determined by the ratio between the number of treated cells and the number of untreated cells.

Series [2] has as its system U343 (glioblastoma). Kind of series: Cell counting (Trypan blue, Neubauer chamber), U343 cells. The class given is cell-based. Conditions: for percentage of viable cells compared to the control: 48 h. As to the method:
as §2, §3

Series [3] relates to human dermal fibroblasts (HDF). Briefly: Cell counting (Trypan blue, Neubauer chamber), HDF cells. It is filed as cell-based. As to the method:
as §1, §2, §3

Series [4] concerns MIA PaCa-2 pancreatic cancer cell line. Briefly: Cell counting (Trypan blue, Neubauer chamber), MIA PaCa-2 cells. The class given is cell-based. Conditions: for percentage of viable cells relative to the control: 48 h. As to the method:
The MIA PaCa-2 cells were cultivated in T25 flasks and treated with the agents after reaching a confluence of 90%. After a 48 hours treatment, the cells were detached with trypsin-EDTA and suspended in medium consisting of 50% DMEM and 50% Trypan blue. The number of viable cells after each treatment was estimated by using the Neubauer counting chamber, excluding those cells which turned out positive to Trypan blue. At least three counts were made for each treatment.
The percentage of viable cells relative to the control was determined by the ratio between the number of treated cells and the number of untreated cells.

Series [5] has as its system U343 cells / HDF cells. Kind of series: Therapeutic Favourability Index (ratio of viable U343 to viable HDF cells). The class given is cell-based. From the text: It may be useful to remind that the TFI parameter allows estimating the ratio between desired cytotoxicity (on U343 cells) and undesired cytotoxicity (on HDF cells used as a normal cell model). The lower the value of the TFI parameter, the more the assayed agent is adequate for therapeutic use, since this parameter measures the ratio between desired cytotoxicity (on tumour cells) and undesired cytotoxicity (on the cells of the non-tumour model).

The subject of series [6] is U343 (glioblastoma). Briefly: WST-1 assay (dehydrogenase activity / cell viability), U343 cells. Conditions: 48 h. For orientation: Formazan colour is commonly taken as a measure of viable cells.
Series [7] relates to MIA PaCa-2 (pancreatic carcinoma). Briefly: WST-1 assay (dehydrogenase activity / cell viability), MIA PaCa-2 cells.
Where [8] appears, read: 2.154 μM (combination equimolar).
[9] abbreviates: 4.642 μM (combination equimolar).

Regarding `Cn1nnc2c(C(N)=O)ncn2c1=O` [temozolomide, reference compound], the cytotoxicity at 48 h in series [1] (direct administration, decrease up to, read-out: reduction in the percentage of viable HDF cells) fell in the range of 60 to 70%.

As for `COc1ccc2cc3[n+](cc2c1OC)CCc1cc2c(cc1-3)OCO2` [Berberine, berberine], the “% proliferation of U343 against control” value in series [2] (0.464 μM) is listed as 94.00%; in series [2] (2.154 μM), 82.60%; in series [2] (10.0 μM), 59.80%. The “percentage of viable cells compared to the control” value in series [2] (Ber 0.464 μM) is recorded as 94%; in series [2] (Ber 2.154 μM), 82.6%; in series [2] (Ber 10 μM), 59.8%. The viability at 48 h, 0.464 μM in series [1] (Ber 0.464 μM, 48 h, read-out: percentage of viable cells compared to the control) came to 82.7%. Further, the viability at 48 h, 2.154 μM in series [1] (Ber 2.154 μM, 48 h, read-out: percentage of viable cells compared to the control) was 70.4%. For the same molecule, in series [1] (Ber 10 μM, 48 h, read-out: percentage of viable cells compared to the control), the viability at 48 h, 10 μM worked out at 67.3%. Besides, the entries for the “% proliferation of HDF against control” value in series [3] (0.464 μM), in series [3] (2.154 μM) and in series [3] (10.0 μM) were 82.65%, 71.41% and 67.35%, respectively. In addition, the “percentage of viable cells relative to the control” value came to 88% in series [4] (Ber 0.4 μM); 51% in series [4] (Ber 2.0 μM); 33% in series [4] (Ber 10 μM, listed as Ber); 24% in series [4] (Ber 50 μM). In addition, the results for the “TFI index U343/HDF % proliferation ratio” value in series [5] (0.464 μM), in series [5] (2.154 μM) and in series [5] (10.0 μM) were 1.137, 1.173 and 0.888, respectively. Further, the “Δ (viability %)” value is 23.2128% in series [6] (0.1 μM (combination equimolar)); 12.3254% in series [6] (0.215 μM (combination equimolar)); 36.3599% in series [6] (0.464 μM (combination equimolar)); 27.3008% in series [6] (1 μM (combination equimolar)); 15.4889% in series [6] (setting [8]); 11.3394% in series [6] (setting [9]). Further, the “Δ (viability %)” value is 10.3533% in series [6] (10 μM (combination equimolar)) and 5.73% in series [7] (0.215 μM (combination equimolar), 48 h). In addition, in series [7] (starting from concentrations slightly lower than 10 μM), the “decrease in the metabolic activity” value is listed as “approx. 50%”.

`CN1Cc2c(ccc3c2OCO3)[C@@H]2[C@H]1c1cc3c(cc1C[C@@H]2O)OCO3` [Chelidonine, chelidonine]: the “Δ (viability %)” value in series [6] (0.1 μM (combination equimolar)) was found to be 2.4722%; in series [6] (1 μM (combination equimolar)), 25.9168%; in series [6] (setting [8]), 40.0495%; in series [6] (setting [9]), 24.4335%; in series [6] (10 μM (combination equimolar)) it was 14.3799%.

Regarding `Nc1ccn([C@@H]2O[C@H](CO)[C@@H](O)C2(F)F)c(=O)n1` [Gemcitabine, gemcitabine, reference compound], in series [4] (Gemcitabine 20 μM), the “percentage of viable cells relative to the control” value is 33%. In addition, the viability at 20 µM in series [4] (Homo sapiens, MIA PaCa-2, 48 h, Gemcitabine 20 μM, read-out: percentage of viable cells relative to the control) is greater than 30%. For the same molecule, in series [7] (agent alone, 0.1-10 μM), the “effect on cell metabolic activity” value was “essentially negligible increase”.
